Source: ChEMBL document CHEMBL1649265, “Antimicrobial susceptibilities of Mycoplasma genitalium strains examined by broth dilution and quantitative PCR” (2009)
In brackets after ≈: the same amount, converted by molar mass.

Assays:
Assay type in all cases: functional
Mycoplasma genitalium [1] = assay: Antibacterial activity against Mycoplasma genitalium UTMB-10G by broth dilution method; conditions: Mycoplasmoides genitalium, read-out: MIC
Mycoplasma genitalium [2] = assay: Antibacterial activity against Mycoplasma genitalium TW48-5G by broth dilution method; conditions: Mycoplasmoides genitalium, read-out: MIC
Mycoplasma genitalium [3] = assay: Antibacterial activity against Mycoplasma genitalium by quantitative TaqMan PCR method; conditions: Mycoplasmoides genitalium
Mycoplasma genitalium [4] = assay: Antibacterial activity against Mycoplasma genitalium M6283 by broth dilution method; conditions: Mycoplasmoides genitalium
Mycoplasma genitalium [5] = assay: Antibacterial activity against Mycoplasma genitalium M6287 by broth dilution method; conditions: Mycoplasmoides genitalium
Mycoplasma genitalium [6] = assay: Antibacterial activity against Mycoplasma genitalium M2282 by broth dilution method; conditions: Mycoplasmoides genitalium
Mycoplasma genitalium [7] = assay: Antibacterial activity against Mycoplasma genitalium M2321 by broth dilution method; conditions: Mycoplasmoides genitalium
Mycoplasma genitalium [8] = assay: Antibacterial activity against Mycoplasma genitalium TW10-6G by broth dilution method; conditions: Mycoplasmoides genitalium, read-out: MIC
Mycoplasma genitalium [9] = assay: Antibacterial activity against Mycoplasma genitalium M6282 by broth dilution method; conditions: Mycoplasmoides genitalium
Mycoplasma genitalium [10] = assay: Antibacterial activity against Mycoplasma genitalium by broth dilution method; conditions: Mycoplasmoides genitalium; for MIC50: read-out: MIC50; for MIC90: read-out: MIC90
Mycoplasma genitalium [11] = assay: Antibacterial activity against Mycoplasma genitalium M6257 by broth dilution method; conditions: Mycoplasmoides genitalium
Mycoplasma genitalium [12] = assay: Antibacterial activity against Mycoplasma genitalium M6328 by broth dilution method; conditions: Mycoplasmoides genitalium
Mycoplasma genitalium [13] = assay: Antibacterial activity against Mycoplasma genitalium M6151 by broth dilution method; conditions: Mycoplasmoides genitalium
Mycoplasma genitalium [14] = assay: Antibacterial activity against Mycoplasma genitalium M2341 by broth dilution method; conditions: Mycoplasmoides genitalium
Mycoplasma genitalium [15] = assay: Antibacterial activity against Mycoplasma genitalium M6284 by broth dilution method; conditions: Mycoplasmoides genitalium
Mycoplasma genitalium [16] = assay: Antibacterial activity against Mycoplasma genitalium TW10-5G by broth dilution method; conditions: Mycoplasmoides genitalium, read-out: MIC
Mycoplasma genitalium [17] = assay: Antibacterial activity against Mycoplasma genitalium M2300 by broth dilution method; conditions: Mycoplasmoides genitalium
Mycoplasma genitalium [18] = assay: Antibacterial activity against Mycoplasma genitalium M6090 by broth dilution method; conditions: Mycoplasmoides genitalium
Mycoplasma genitalium [19] = assay: Antibacterial activity against Mycoplasma genitalium M6286 by broth dilution method; conditions: Mycoplasmoides genitalium
Mycoplasma genitalium [20] = assay: Antibacterial activity against Mycoplasma genitalium M6280 by broth dilution method; conditions: Mycoplasmoides genitalium
Mycoplasma genitalium [21] = assay: Antibacterial activity against Mycoplasma genitalium G37 by broth dilution method; conditions: Mycoplasmoides genitalium, read-out: MIC
Mycoplasma genitalium [22] = assay: Antibacterial activity against Mycoplasma genitalium M6285 by broth dilution method; conditions: Mycoplasmoides genitalium
Mycoplasma genitalium [23] = assay: Antibacterial activity against Mycoplasma genitalium M30 by broth dilution method; conditions: Mycoplasmoides genitalium, read-out: MIC
Mycoplasma genitalium [24] = assay: Antibacterial activity against Mycoplasma genitalium R32 by broth dilution method; conditions: Mycoplasmoides genitalium, read-out: MIC

CN(C)[C@@H]1C(O)=C(C(N)=O)C(=O)[C@@]2(O)C(O)=C3C(=O)c4c(O)cccc4[C@@](C)(O)[C@H]3C[C@@H]12 [TETRACYCLINE]
MIC (Mycoplasma genitalium [1]): 0.063 µg/mL (≈ 0.142 µM) | MIC (Mycoplasma genitalium [2]): 0.063 µg/mL (≈ 0.142 µM) | MIC50 (Mycoplasma genitalium [3]): 0.5 µg/mL (≈ 1.13 µM) | MIC90 (Mycoplasma genitalium [3]): 2 µg/mL (≈ 4.5 µM) | MIC (Mycoplasma genitalium [4]): 0.063 µg/mL (≈ 0.142 µM) | MIC (Mycoplasma genitalium [5]): 0.063 µg/mL (≈ 0.142 µM) | MIC (Mycoplasma genitalium [6]): 0.063 µg/mL (≈ 0.142 µM) | MIC (Mycoplasma genitalium [7]): 0.063 µg/mL (≈ 0.142 µM) | MIC (Mycoplasma genitalium [8]): 0.063 µg/mL (≈ 0.142 µM) | MIC (Mycoplasma genitalium [9]): 0.063 µg/mL (≈ 0.142 µM) | MIC50 (Mycoplasma genitalium [10]): 0.125 µg/mL (≈ 0.281 µM) | MIC90 (Mycoplasma genitalium [10]): 0.5 µg/mL (≈ 1.13 µM) | MIC (Mycoplasma genitalium [11]): 0.063 µg/mL (≈ 0.142 µM) | MIC (Mycoplasma genitalium [12]): 0.063 µg/mL (≈ 0.142 µM) | MIC (Mycoplasma genitalium [13]): 0.063 µg/mL (≈ 0.142 µM) | MIC (Mycoplasma genitalium [14]): 0.063 µg/mL (≈ 0.142 µM) | MIC (Mycoplasma genitalium [15]): 0.063 µg/mL (≈ 0.142 µM) | MIC (Mycoplasma genitalium [16]): 0.063 µg/mL (≈ 0.142 µM) | MIC (Mycoplasma genitalium [17]): 0.063 µg/mL (≈ 0.142 µM) | MIC (Mycoplasma genitalium [18]): 0.063 µg/mL (≈ 0.142 µM) | MIC (Mycoplasma genitalium [19]): 0.063 µg/mL (≈ 0.142 µM) | MIC (Mycoplasma genitalium [20]): 0.063 µg/mL (≈ 0.142 µM) | MIC (Mycoplasma genitalium [21]): 0.063 µg/mL (≈ 0.142 µM) | MIC (Mycoplasma genitalium [22]): 0.063 µg/mL (≈ 0.142 µM) | MIC (Mycoplasma genitalium [23]): 0.063 µg/mL (≈ 0.142 µM) | MIC (Mycoplasma genitalium [24]): 0.063 µg/mL (≈ 0.142 µM)

C[C@H]1COc2c(N3CCN(C)CC3)c(F)cc3c(=O)c(C(=O)O)cn1c23.C[C@H]1COc2c(N3CCN(C)CC3)c(F)cc3c(=O)c(C(=O)O)cn1c23.O [LEVOFLOXACIN]
MIC (Mycoplasma genitalium [1]): 1 µg/mL | MIC (Mycoplasma genitalium [2]): 1 µg/mL | MIC50 (Mycoplasma genitalium [3]): 1 µg/mL | MIC90 (Mycoplasma genitalium [3]): 4 µg/mL | MIC (Mycoplasma genitalium [4]): 0.125 µg/mL | MIC (Mycoplasma genitalium [5]): 0.125 µg/mL | MIC (Mycoplasma genitalium [6]): 0.125 µg/mL | MIC (Mycoplasma genitalium [7]): 0.125 µg/mL | MIC (Mycoplasma genitalium [8]): 1 µg/mL | MIC (Mycoplasma genitalium [9]): 0.125 µg/mL | MIC50 (Mycoplasma genitalium [10]): 1 µg/mL | MIC90 (Mycoplasma genitalium [10]): 2 µg/mL | MIC (Mycoplasma genitalium [11]): 0.125 µg/mL | MIC (Mycoplasma genitalium [12]): 0.125 µg/mL | MIC (Mycoplasma genitalium [13]): 0.125 µg/mL | MIC (Mycoplasma genitalium [14]): 0.125 µg/mL | MIC (Mycoplasma genitalium [15]): 0.125 µg/mL | MIC (Mycoplasma genitalium [16]): 1 µg/mL | MIC (Mycoplasma genitalium [17]): 0.125 µg/mL | MIC (Mycoplasma genitalium [18]): 0.125 µg/mL | MIC (Mycoplasma genitalium [19]): 0.125 µg/mL | MIC (Mycoplasma genitalium [20]): 0.125 µg/mL | MIC (Mycoplasma genitalium [21]): 1 µg/mL | MIC (Mycoplasma genitalium [22]): 0.125 µg/mL | MIC (Mycoplasma genitalium [23]): 1 µg/mL | MIC (Mycoplasma genitalium [24]): 1 µg/mL

C[C@H]1c2cccc(O)c2C(=O)C2=C(O)[C@]3(O)C(=O)C(C(N)=O)=C(O)[C@@H](N(C)C)[C@@H]3[C@@H](O)[C@@H]21.O [DOXYCYCLINE]
MIC (Mycoplasma genitalium [1]): 0.063 µg/mL | MIC (Mycoplasma genitalium [2]): 0.063 µg/mL | MIC50 (Mycoplasma genitalium [3]): 0.25 µg/mL | MIC90 (Mycoplasma genitalium [3]): 0.5 µg/mL | MIC (Mycoplasma genitalium [4]): 0.063 µg/mL | MIC (Mycoplasma genitalium [5]): 0.063 µg/mL | MIC (Mycoplasma genitalium [6]): 0.063 µg/mL | MIC (Mycoplasma genitalium [7]): 0.063 µg/mL | MIC (Mycoplasma genitalium [8]): 0.063 µg/mL | MIC (Mycoplasma genitalium [9]): 0.063 µg/mL | MIC50 (Mycoplasma genitalium [10]): 0.125 µg/mL | MIC90 (Mycoplasma genitalium [10]): 0.25 µg/mL | MIC (Mycoplasma genitalium [11]): 0.063 µg/mL | MIC (Mycoplasma genitalium [12]): 0.063 µg/mL | MIC (Mycoplasma genitalium [13]): 0.063 µg/mL | MIC (Mycoplasma genitalium [14]): 0.063 µg/mL | MIC (Mycoplasma genitalium [15]): 0.063 µg/mL | MIC (Mycoplasma genitalium [16]): 0.063 µg/mL | MIC (Mycoplasma genitalium [17]): 0.063 µg/mL | MIC (Mycoplasma genitalium [18]): 0.063 µg/mL | MIC (Mycoplasma genitalium [19]): 0.063 µg/mL | MIC (Mycoplasma genitalium [20]): 0.063 µg/mL | MIC (Mycoplasma genitalium [21]): 0.063 µg/mL | MIC (Mycoplasma genitalium [22]): 0.063 µg/mL | MIC (Mycoplasma genitalium [23]): 0.063 µg/mL | MIC (Mycoplasma genitalium [24]): 0.063 µg/mL
